# Source: patent US20230151003A1, “COMPOUNDS AND METHODS OF USE” (Exelixis, Inc., priority 2020, published 2023)
# Key:
# KDR = KDR (Homo sapiens, UniProt P35968); test: KDR autophosphorylation ELISA in HUVEC cells; assay type: cell-based; set-up: endogenous in cells; host or cells: HUVEC (Lonza #C2519A); conditions: Table 3 Cellular Activities, VEGF165-stimulated, phospho-KDR ELISA
# Summary of the method: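 Compound pretreatment (1 h, 0.3% DMSO) of serum-starved HUVEC preceded a 5 min pulse of 100 ng/mL VEGF165, after which cells were lysed. Phospho-KDR was quantified by ELISA relative to stimulated and unstimulated controls.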
# AXL = target: T1, AXL (Homo sapiens, UniProt P30530); test: AXL autophosphorylation ELISA in A-172 cells; assay type: cell-based; conditions: Table 3 Cellular Activities, Gas6-stimulated, phospho-AXL ELISA
# T1 construct: endogenous in cells; host or cells: A-172 glioblastoma cells (ATCC #CRL-1620)
# T1 sequence (P30530 26-894): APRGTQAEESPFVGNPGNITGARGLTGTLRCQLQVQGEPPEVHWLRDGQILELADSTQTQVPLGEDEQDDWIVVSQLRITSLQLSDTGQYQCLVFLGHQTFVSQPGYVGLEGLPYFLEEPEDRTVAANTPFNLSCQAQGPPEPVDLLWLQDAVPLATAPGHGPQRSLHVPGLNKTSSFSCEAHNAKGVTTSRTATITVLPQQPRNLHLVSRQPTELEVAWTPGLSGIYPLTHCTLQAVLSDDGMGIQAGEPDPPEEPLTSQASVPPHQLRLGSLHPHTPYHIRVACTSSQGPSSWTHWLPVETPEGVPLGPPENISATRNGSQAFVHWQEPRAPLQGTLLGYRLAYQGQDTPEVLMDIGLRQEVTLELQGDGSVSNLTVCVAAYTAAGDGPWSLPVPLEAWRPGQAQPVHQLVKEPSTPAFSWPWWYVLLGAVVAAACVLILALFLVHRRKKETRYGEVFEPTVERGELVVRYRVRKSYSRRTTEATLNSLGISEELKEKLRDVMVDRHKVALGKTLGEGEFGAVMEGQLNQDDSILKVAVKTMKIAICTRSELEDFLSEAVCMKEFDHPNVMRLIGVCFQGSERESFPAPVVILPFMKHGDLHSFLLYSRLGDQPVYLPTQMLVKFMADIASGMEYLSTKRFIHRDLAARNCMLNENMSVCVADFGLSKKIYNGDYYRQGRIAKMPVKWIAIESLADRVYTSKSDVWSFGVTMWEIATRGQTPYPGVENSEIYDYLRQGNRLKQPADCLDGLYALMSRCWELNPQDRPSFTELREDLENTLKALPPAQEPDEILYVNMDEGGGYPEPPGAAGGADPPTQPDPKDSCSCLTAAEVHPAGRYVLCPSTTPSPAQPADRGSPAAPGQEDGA
# Description: A-172 glioblastoma cells (ATCC #CRL-1620) were seeded at 2.5×10^5 cells/well onto 24-well plates (Greiner #662165), in DMEM (Thermo Fisher #11995-040) containing 10% FBS (Thermo Fisher #26140-079), 1% MEM NEAA (Thermo Fisher #11140-050), 1% GlutaMax (Thermo Fisher #35050-061), and 1% Penicillin Streptomycin (Thermo Fisher #15140-122). A-172 cells were incubated at 37° C., 5% CO2 for 24 h and then starved for 24 h in serum-free medium. Test compounds were serially diluted to produce an 8-point dose curve in fresh serum-free medium to a final concentration of 0.3% DMSO (vehicle) and added to the cells and incubated for 1 h. Cells were then stimulated with 1 μg/mL recombinant human Gas6 (R&D Systems #885-GSB-500) for 15 min, washed with cold PBS, and immediately lysed with 150 μL of cold 1× lysis buffer [20 mM Tris, 137 mM sodium chloride, 2 mM EDTA, 10% glycerol, 1% NP-40 alternative, 1 mM activated sodium orthovanadate, 1 mM PefaBloc SC (Sigma-Aldrich #11429868001), protease/phosphatase inhibitor tablet (Thermo Fisher #A32959)]. Lysates were collected and 100 μL/well added into the human phospho-AXL DuoSet IC ELISA (R&D Systems #DYC2228-2). Assay was performed according to manufacturer's instructions and sample phospho-AXL concentrations were extrapolated using human phospho-AXL control (R&D Systems #841645) as a standard. Positive control wells (100% activity) contained Gas6-stimulated, DMSO-treated cell lysates. Negative control wells (0% activity) contained Gas6-stimulated, reference inhibitor-treated cell lysates. IC50 values were calculated by nonlinear regression analysis using a 4-parameter logistic curve fit in ActivityBase XE (IDBS).
# KDR, sequence (P35968 20-1356): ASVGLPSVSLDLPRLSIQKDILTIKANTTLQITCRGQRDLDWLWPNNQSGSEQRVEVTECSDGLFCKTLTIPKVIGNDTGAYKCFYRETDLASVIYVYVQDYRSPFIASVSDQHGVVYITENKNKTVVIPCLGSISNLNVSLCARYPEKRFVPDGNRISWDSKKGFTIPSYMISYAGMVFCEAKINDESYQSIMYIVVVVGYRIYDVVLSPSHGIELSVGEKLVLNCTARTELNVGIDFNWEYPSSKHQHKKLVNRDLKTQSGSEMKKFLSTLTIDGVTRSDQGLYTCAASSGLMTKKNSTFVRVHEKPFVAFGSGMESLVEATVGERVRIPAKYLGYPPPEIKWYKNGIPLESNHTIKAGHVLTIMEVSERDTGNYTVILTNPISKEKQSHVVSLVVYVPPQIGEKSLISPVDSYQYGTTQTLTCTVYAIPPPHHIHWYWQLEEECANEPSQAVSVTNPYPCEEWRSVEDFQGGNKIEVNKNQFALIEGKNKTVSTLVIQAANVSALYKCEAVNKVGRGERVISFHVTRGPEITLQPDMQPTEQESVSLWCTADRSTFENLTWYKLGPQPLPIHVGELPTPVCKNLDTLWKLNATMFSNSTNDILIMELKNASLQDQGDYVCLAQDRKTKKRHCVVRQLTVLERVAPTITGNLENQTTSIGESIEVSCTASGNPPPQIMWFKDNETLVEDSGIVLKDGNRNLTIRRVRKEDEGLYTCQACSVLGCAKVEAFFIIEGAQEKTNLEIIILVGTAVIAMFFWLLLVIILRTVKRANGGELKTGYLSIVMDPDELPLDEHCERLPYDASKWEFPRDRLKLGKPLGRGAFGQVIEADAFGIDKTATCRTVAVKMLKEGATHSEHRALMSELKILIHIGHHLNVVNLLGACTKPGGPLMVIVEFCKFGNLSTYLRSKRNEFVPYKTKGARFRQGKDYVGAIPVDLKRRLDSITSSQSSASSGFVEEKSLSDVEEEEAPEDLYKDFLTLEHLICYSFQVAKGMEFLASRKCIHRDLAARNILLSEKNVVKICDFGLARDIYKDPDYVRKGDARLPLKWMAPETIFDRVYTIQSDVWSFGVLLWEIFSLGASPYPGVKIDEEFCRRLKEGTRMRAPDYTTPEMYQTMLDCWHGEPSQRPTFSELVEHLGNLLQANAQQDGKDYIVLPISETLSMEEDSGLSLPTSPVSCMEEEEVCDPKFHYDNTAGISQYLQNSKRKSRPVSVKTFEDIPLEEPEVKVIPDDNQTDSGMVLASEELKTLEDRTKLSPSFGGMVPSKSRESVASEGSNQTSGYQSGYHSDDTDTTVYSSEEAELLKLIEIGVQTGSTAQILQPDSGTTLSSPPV
SMILES,IC50 (KDR) [µM],IC50 (AXL) [µM]
"COc1cc2nccc(Oc3ccc(NC(=O)c4cnc(C)c(-c5ccco5)c4O)cc3)c2nc1OC [Compound 255, N-[4-[(6,7-Dimethoxy-1,5-naphthyridin-4-yl)oxy]phenyl]-5-(furan-2-yl)-4-hydroxy-6-methylpyridine-3-carboxamide]",≤ 0.1,≤ 0.1
"COc1cc2nccc(Oc3ccc(NC(=O)c4c(C)ncc(-c5cccnc5)c4O)cc3F)c2nc1OC [Compound 228, N-[4-[(6,7-Dimethoxy-1,5-naphthyridin-4-yl)oxy]-3-fluorophenyl]-4-hydroxy-2-methyl-5-pyridin-3-ylpyridine-3-carboxamide]",≤ 0.1,≤ 0.1
"COc1cc2nccc(Oc3ccc(NC(=O)c4ccc(C)n(-c5ccncc5F)c4=O)cc3F)c2nc1OC [Compound 220, N-[4-[(6,7-Dimethoxy-1,5-naphthyridin-4-yl)oxy]-3-fluorophenyl]-1-(3-fluoropyridin-4-yl)-6-methyl-2-oxopyridine-3-carboxamide]",≤ 0.1,≤ 0.1
"COc1cc2nccc(Oc3ccc(NC(=O)c4c(C)ncc(-c5ccccn5)c4O)cc3F)c2nc1OC [Compound 69, N-[4-[(6,7-Dimethoxy-1,5-naphthyridin-4-yl)oxy]-3-fluorophenyl]-4-hydroxy-2-methyl-5-pyridin-2-ylpyridine-3-carboxamide]",≤ 0.1,≤ 0.1
"COCCOc1cc2nccc(Oc3ccc(NC(=O)c4c(C)n(C)c(C)c(-c5coc6ccccc56)c4=O)cc3F)c2nc1OC [Compound 264, 5-(1-Benzofuran-3-yl)-N-[3-fluoro-4-[[6-methoxy-7-(2-methoxyethoxy)-1,5-naphthyridin-4-yl]oxy]phenyl]-1,2,6-trimethyl-4-oxopyridine-3-carboxamide]",0.3 to 1,≤ 0.1
"COc1cc2nccc(Oc3ccc(NC(=O)c4ccc(C)n(-c5ccnc(O)c5)c4=O)cc3F)c2nc1OC [Compound 232, N-[4-[(6,7-Dimethoxy-1,5-naphthyridin-4-yl)oxy]-3-fluorophenyl]-1-(2-hydroxypyridin-4-yl)-6-methyl-2-oxopyridine-3-carboxamide]",0.3 to 1,≤ 0.1
"COc1cc2nccc(Oc3ccc(NC(=O)c4c5n(cc(-c6ccc(C)s6)c4=O)CCOC5)cc3)c2nc1OC [Compound 305, N-[4-[(6,7-Dimethoxy-1,5-naphthyridin-4-yl)oxy]phenyl]-7-(5-methylthiophen-2-yl)-8-oxo-3,4-dihydro-1H-pyrido[2,1-c][1,4]oxazine-9-carboxamide]",0.3 to 1,≤ 0.1
"COc1cc2nccc(Oc3ccc(NC(=O)c4c(C)nc(C)c(-c5ccc(F)cn5)c4O)cc3)c2nc1OC [Compound 216, N-[4-[(6,7-Dimethoxy-1,5-naphthyridin-4-yl)oxy]phenyl]-5-(5-fluoropyridin-2-yl)-4-hydroxy-2,6-dimethylpyridine-3-carboxamide]",≤ 0.1,≤ 0.1
"COc1cc2nccc(Oc3ccc(NC(=O)c4c5n(cc(-c6ccoc6)c4=O)CCOC5)cc3F)c2nc1OC [Compound 306, N-[4-[(6,7-Dimethoxy-1,5-naphthyridin-4-yl)oxy]-3-fluorophenyl]-7-(furan-3-yl)-8-oxo-3,4-dihydro-1H-pyrido[2,1-c][1,4]oxazine-9-carboxamide]",0.3 to 1,≤ 0.1
"COCCOc1cc2nccc(Oc3ccc(NC(=O)c4cnc(C)c(-c5ccco5)c4O)cc3F)c2nc1OC [Compound 260, N-[3-Fluoro-4-[[6-methoxy-7-(2-methoxyethoxy)-1,5-naphthyridin-4-yl]oxy]phenyl]-5-(furan-2-yl)-4-hydroxy-6-methylpyridine-3-carboxamide]",≤ 0.1,≤ 0.1
"COc1cc2nccc(Oc3ccc(NC(=O)c4ncc(C)n(-c5ccc(F)cn5)c4=O)cc3F)c2nc1OC [Compound 219, N-[4-[(6,7-Dimethoxy-1,5-naphthyridin-4-yl)oxy]-3-fluorophenyl]-4-(5-fluoropyridin-2-yl)-5-methyl-3-oxopyrazine-2-carboxamide]",≤ 0.1,≤ 0.1
"COc1cnc2c(Oc3ccc(NC(=O)c4ccc(C)n(-c5ccc(F)cn5)c4=O)cc3F)ccnc2c1 [Compound 45, N-[3-Fluoro-4-[(7-methoxy-1,5-naphthyridin-4-yl)oxy]phenyl]-1-(5-fluoropyridin-2-yl)-6-methyl-2-oxopyridine-3-carboxamide]",≤ 0.1,≤ 0.1
"COCc1nc(C)c(-c2ccc(F)cn2)c(O)c1C(=O)Nc1ccc(Oc2ccnc3cc(OC)c(OC)nc23)c(F)c1 [Compound 214, N-[4-[(6,7-Dimethoxy-1,5-naphthyridin-4-yl)oxy]-3-fluorophenyl]-5-(5-fluoropyridin-2-yl)-4-hydroxy-2-(methoxymethyl)-6-methylpyridine-3-carboxamid]",≤ 0.1,≤ 0.1
"COc1cc2nccc(Oc3ccc(NC(=O)c4ccc(C)n(-c5ccnc(C)c5)c4=O)cc3F)c2nc1OC [Compound 230, N-[4-[(6,7-Dimethoxy-1,5-naphthyridin-4-yl)oxy]-3-fluorophenyl]-6-methyl-1-(2-methylpyridin-4-yl)-2-oxopyridine-3-carboxamide]",≤ 0.1,≤ 0.1
"COc1cc2nccc(Oc3ccc(NC(=O)c4c(C)ncc(-c5ccc(F)cn5)c4O)cc3F)c2nc1OC [Compound 68, N-[4-[(6,7-Dimethoxy-1,5-naphthyridin-4-yl)oxy]-3-fluorophenyl]-5-(5-fluoropyridin-2-yl)-4-hydroxy-2-methylpyridine-3-carboxamide]",≤ 0.1,≤ 0.1
"COc1cc2nccc(Oc3ccc(NC(=O)c4c(C)ncc(-c5ncc(F)cc5C)c4O)cc3F)c2nc1OC [Compound 200, N-[4-[(6,7-Dimethoxy-1,5-naphthyridin-4-yl)oxy]-3-fluorophenyl]-5-(5-fluoro-3-methylpyridin-2-yl)-4-hydroxy-2-methylpyridine-3-carboxamide]",≤ 0.1,≤ 0.1
"COc1cc2nccc(Oc3ccc(NC(=O)c4c5n(cc(-c6ccco6)c4=O)CCOC5)cc3F)c2nc1OC [Compound 297, N-[4-[(6,7-Dimethoxy-1,5-naphthyridin-4-yl)oxy]-3-fluorophenyl]-7-(furan-2-yl)-8-oxo-3,4-dihydro-1H-pyrido[2,1-c][1,4]oxazine-9-carboxamide]",0.3 to 1,≤ 0.1
"COc1cnc2c(Oc3ccc(NC(=O)c4ccc(C)n(-c5ncc(F)cc5C)c4=O)cc3F)ccnc2c1 [Compound 52, N-[3-Fluoro-4-[(7-methoxy-1,5-naphthyridin-4-yl)oxy]phenyl]-1-(5-fluoro-3-methylpyridin-2-yl)-6-methyl-2-oxopyridine-3-carboxamide]",≤ 0.1,≤ 0.1
"COc1cc2nccc(Oc3ccc(NC(=O)c4ccc(C)n(-c5ccc(F)cn5)c4=O)cc3)c2nc1OC [Compound 44, N-[4-[(6,7-Dimethoxy-1,5-naphthyridin-4-yl)oxy]phenyl]-1-(5-fluoropyridin-2-yl)-6-methyl-2-oxopyridine-3-carboxamide]",≤ 0.1,≤ 0.1
